Assay results taken from ChEMBL document CHEMBL1201862, “PubChem BioAssay data set” (2004).
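Five compound concentrations were applied to cells in 96-well plates for 48 hours; endpoints were derived by simple linear interpolation of the resulting dose-response curve. GI50 = concentration required for 50% inhibition of growth.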 Activity calls are given as the source filed them. Rule as the data show it: active = GI50 up to about 1.1 µM and inactive = higher.

Legend:
Assay in all cases: NCI anticancer screen, dose series, 48 h
A549 = test system: A549
DLD-1 = test system: DLD-1
HOP-18 = test system: HOP-18
HOP-92 = test system: HOP-92
K562 = test system: K562
KM-20L2 = test system: KM-20L2
KM12 = test system: KM12
LXFL 529 = test system: LXFL 529
NCI-H460 = test system: NCI-H460
RXF 393 = test system: RXF 393
SK-MEL-5 = test system: SK-MEL-5
SN12C = test system: SN12C
SNB-19 = test system: SNB-19
SW-620 = test system: SW-620
UO-31 = test system: UO-31
SNB-78 = test system: SNB-78
DU-145 = test system: DU-145
Hs-578T = test system: Hs-578T
MDA-MB-231 = test system: MDA-MB-231
MDA-MB-435 = test system: MDA-MB-435

Compound	GI50 (A549)	GI50 (DLD-1)	GI50 (HOP-18)	GI50 (HOP-92)	GI50 (K562)	GI50 (KM-20L2)	GI50 (KM12)	GI50 (LXFL 529)	GI50 (NCI-H460)	GI50 (RXF 393)	GI50 (SK-MEL-5)	GI50 (SN12C)	GI50 (SNB-19)	GI50 (SW-620)	GI50 (UO-31)	GI50 (SNB-78)	GI50 (DU-145)	GI50 (Hs-578T)	GI50 (MDA-MB-231)	GI50 (MDA-MB-435)
COc1cc(C(=O)C/C(CCC(=O)Nc2ccc(Cl)cc2Cl)=N/NC(=O)C(=O)NN)ccc1O	> 100 µM (inactive)	> 100 µM (inactive)	> 100 µM (inactive)	> 100 µM (inactive)	28.1 µM (inactive)	> 100 µM (inactive)	> 100 µM (inactive)	> 100 µM (inactive)	> 100 µM (inactive)	> 100 µM (inactive)	> 100 µM (inactive)	> 100 µM (inactive)	> 100 µM (inactive)	> 100 µM (inactive)	> 100 µM (inactive)	–	–	–	–	–
COc1ccccc1NC(=O)/C(=C/c1ccccc1)C(C)=O	38 µM (inactive)	38.8 µM (inactive)	> 100 µM (inactive)	45.3 µM (inactive)	27.6 µM (inactive)	–	36.9 µM (inactive)	43.9 µM (inactive)	37.2 µM (inactive)	20.7 µM (inactive)	22.7 µM (inactive)	42.2 µM (inactive)	47.3 µM (inactive)	36.9 µM (inactive)	56.8 µM (inactive)	10.8 µM (inactive)	–	–	–	–
Cc1ccc([N+](=O)[O-])cc1NC(=O)C(=O)C(C(=O)c1ccccc1F)C1OC(=O)c2ccccc21 (configuration not stated)	50.1 µM (inactive)	41.5 µM (inactive)	–	> 100 µM (inactive)	32.7 µM (inactive)	34.6 µM (inactive)	52.5 µM (inactive)	34 µM (inactive)	38.9 µM (inactive)	20.5 µM (inactive)	63.1 µM (inactive)	33.8 µM (inactive)	15.3 µM (inactive)	35.1 µM (inactive)	49.1 µM (inactive)	> 100 µM (inactive)	–	–	–	–
CCCCc1c2c(nc3c1CCc1cc4cc5c(nc4nc1-3)-c1nc3c(c(CCCC)c1CC5)CCC/C3=C\c1ccccc1)/C(=C/c1ccccc1)CCC2	> 100 µM (inactive)	> 100 µM (inactive)	–	–	> 100 µM (inactive)	> 100 µM (inactive)	> 100 µM (inactive)	> 100 µM (inactive)	> 100 µM (inactive)	> 100 µM (inactive)	–	> 100 µM (inactive)	> 100 µM (inactive)	> 100 µM (inactive)	> 100 µM (inactive)	> 100 µM (inactive)	–	–	–	–
CCOC(=O)COc1cccc2occc(=O)c12	> 100 µM (inactive)	> 100 µM (inactive)	–	> 100 µM (inactive)	> 100 µM (inactive)	> 100 µM (inactive)	> 100 µM (inactive)	> 100 µM (inactive)	> 100 µM (inactive)	–	> 100 µM (inactive)	> 100 µM (inactive)	> 100 µM (inactive)	> 100 µM (inactive)	> 100 µM (inactive)	> 100 µM (inactive)	–	–	–	–
Cc1nc2sccn2c1C(=O)NN	> 100 µM (inactive)	> 100 µM (inactive)	21.6 µM (inactive)	> 100 µM (inactive)	> 100 µM (inactive)	> 100 µM (inactive)	> 100 µM (inactive)	> 100 µM (inactive)	> 100 µM (inactive)	> 100 µM (inactive)	> 100 µM (inactive)	> 100 µM (inactive)	> 100 µM (inactive)	> 100 µM (inactive)	–	–	–	–	–	–
CC(C)O/C=C1\C(=O)C2(SCCS2)[C@H]2CCCC[C@@H]12	37.9 µM (inactive)	45.9 µM (inactive)	44.6 µM (inactive)	–	39.8 µM (inactive)	39.5 µM (inactive)	35.6 µM (inactive)	33.7 µM (inactive)	33.7 µM (inactive)	21.8 µM (inactive)	25.2 µM (inactive)	68.7 µM (inactive)	39.5 µM (inactive)	42.7 µM (inactive)	41.3 µM (inactive)	49 µM (inactive)	–	–	–	–
Cc1c2ccncc2cc2c1[nH]c1ccccc12	3.22 µM (inactive)	5.01 µM (inactive)	0.789 µM (active)	5.37 µM (inactive)	3.48 µM (inactive)	3.37 µM (inactive)	4.56 µM (inactive)	–	1.77 µM (inactive)	2.68 µM (inactive)	3.97 µM (inactive)	1.58 µM (inactive)	5.71 µM (inactive)	2.42 µM (inactive)	3.45 µM (inactive)	13 µM (inactive)	–	–	–	–
OCC1OC(n2ccc3cnccc32)CC1O (configuration not stated)	> 100 µM (inactive)	> 100 µM (inactive)	> 100 µM (inactive)	> 100 µM (inactive)	> 100 µM (inactive)	–	> 100 µM (inactive)	> 100 µM (inactive)	> 100 µM (inactive)	–	> 100 µM (inactive)	> 100 µM (inactive)	> 100 µM (inactive)	> 100 µM (inactive)	> 100 µM (inactive)	> 100 µM (inactive)	–	–	–	–
CCN(CC)CCCC(C)Nc1cc(-c2ccccc2)nc2cc(OC)ccc12 (configuration not stated)	–	–	–	2.23 µM (inactive)	0.8 µM (active)	2.25 µM (inactive)	5.33 µM (inactive)	6.28 µM (inactive)	2.92 µM (inactive)	–	–	–	> 10 µM (inactive)	–	2.54 µM (inactive)	3.21 µM (inactive)	–	–	–	–
O=C(CN1C(=O)c2ccccc2C1=O)OC1C=CCCC1 (configuration not stated)	> 100 µM (inactive)	> 100 µM (inactive)	> 100 µM (inactive)	–	> 100 µM (inactive)	> 100 µM (inactive)	> 100 µM (inactive)	> 100 µM (inactive)	> 100 µM (inactive)	> 100 µM (inactive)	> 100 µM (inactive)	> 100 µM (inactive)	> 100 µM (inactive)	> 100 µM (inactive)	> 100 µM (inactive)	> 100 µM (inactive)	–	–	–	–
Cc1cc(N(CCC#N)S(=O)(=O)c2ccccc2)ccc1/C=N\c1cccc(C(=O)O)c1	> 100 µM (inactive)	–	> 100 µM (inactive)	> 100 µM (inactive)	71 µM (inactive)	> 100 µM (inactive)	–	> 100 µM (inactive)	> 100 µM (inactive)	> 100 µM (inactive)	83.6 µM (inactive)	> 100 µM (inactive)	> 100 µM (inactive)	> 100 µM (inactive)	53.3 µM (inactive)	> 100 µM (inactive)	–	–	–	–
COc1ccc(C2COc3cc(O)c(O)cc3C2)cc1 (configuration not stated)	48.8 µM (inactive)	9.93 µM (inactive)	29.9 µM (inactive)	11.6 µM (inactive)	9.08 µM (inactive)	76.2 µM (inactive)	39.7 µM (inactive)	–	24 µM (inactive)	6.87 µM (inactive)	24.4 µM (inactive)	30.1 µM (inactive)	24.8 µM (inactive)	9.06 µM (inactive)	56.2 µM (inactive)	38.3 µM (inactive)	–	–	–	–
Oc1c(OCc2nnc(CCCCCCCCc3nnc(COc4ccc5ccccc5c4O)n3Nc3ccccc3)n2Nc2ccccc2)ccc2ccccc12	6.46 µM (inactive)	–	–	15.7 µM (inactive)	0.515 µM (active)	–	3 µM (inactive)	–	1.26 µM (inactive)	16.2 µM (inactive)	1.29 µM (inactive)	13.9 µM (inactive)	11.8 µM (inactive)	10.4 µM (inactive)	2.58 µM (inactive)	–	14.6 µM (inactive)	8.17 µM (inactive)	8.95 µM (inactive)	2.46 µM (inactive)
O=C(c1cccs1)N(C(=S)OC12CC3CC(CC(C3)C1)C2)c1ccccc1	32.8 µM (inactive)	–	–	24.8 µM (inactive)	26.8 µM (inactive)	–	31.9 µM (inactive)	–	33.3 µM (inactive)	62.2 µM (inactive)	22.1 µM (inactive)	27 µM (inactive)	33.7 µM (inactive)	40.7 µM (inactive)	18.7 µM (inactive)	–	84.7 µM (inactive)	32 µM (inactive)	30 µM (inactive)	29.8 µM (inactive)
CCC(C)(C)n1c(C)nc2c1C(=O)c1ccccc1C2=O	36.5 µM (inactive)	15.6 µM (inactive)	–	–	13.6 µM (inactive)	38.6 µM (inactive)	23.8 µM (inactive)	13.9 µM (inactive)	12.2 µM (inactive)	21.1 µM (inactive)	15.7 µM (inactive)	31.5 µM (inactive)	53.3 µM (inactive)	44.7 µM (inactive)	25.7 µM (inactive)	46.5 µM (inactive)	–	–	–	–
NC1CCCCC1.O=P(O)(O)C(CSc1ccccc1)P(=O)(O)O	> 100 µM (inactive)	> 100 µM (inactive)	> 100 µM (inactive)	> 100 µM (inactive)	> 100 µM (inactive)	> 100 µM (inactive)	> 100 µM (inactive)	–	> 100 µM (inactive)	> 100 µM (inactive)	> 100 µM (inactive)	> 100 µM (inactive)	> 100 µM (inactive)	> 100 µM (inactive)	> 100 µM (inactive)	> 100 µM (inactive)	–	–	–	–
O=C(CC(=O)N1N=C(c2ccccc2)C(/N=N/c2ccc(S(=O)(=O)CCOS(=O)(=O)O)cc2)C1=O)Nc1ccc(Cl)cc1 (configuration not stated)	> 100 µM (inactive)	–	–	> 100 µM (inactive)	7.5 µM (inactive)	–	21.7 µM (inactive)	–	> 100 µM (inactive)	> 100 µM (inactive)	> 100 µM (inactive)	86.5 µM (inactive)	> 100 µM (inactive)	> 10 µM (inactive)	40.3 µM (inactive)	–	> 100 µM (inactive)	20.6 µM (inactive)	91.6 µM (inactive)	> 100 µM (inactive)
COC1OC(=O)[C@H]2O[N+]([O-])=C(C)[C@@H]12 (some centres not stated)	> 100 µM (inactive)	> 100 µM (inactive)	> 100 µM (inactive)	> 100 µM (inactive)	> 100 µM (inactive)	> 100 µM (inactive)	> 100 µM (inactive)	–	> 100 µM (inactive)	> 100 µM (inactive)	> 100 µM (inactive)	> 100 µM (inactive)	> 100 µM (inactive)	> 100 µM (inactive)	> 100 µM (inactive)	> 100 µM (inactive)	–	–	–	–
